In patent US20190119348A1, “PARATHYROID HORMONE RECEPTOR 1 ANTAGONIST AND INVERSE AGONIST POLYPEPTIDES AND METHODS OF THEIR USE” (The General Hospital Corporation, priority 2016, published 2019):
Where a SMILES comes first, the peptide text is derived from it. [ ]: non-standard residue; d: D form. Nle = CCCC[C@H](N)C(=O)O

Biological target: T1, human PTHR1-H223R (Homo sapiens, UniProt Q03431, H223R)
T1 construct: expressed in transfected cells; host or cells: GHR-10 (HEK-293 stably expressing GloSensor and PTHR1-H223R)
T1 sequence (Q03431 27-593 H223R): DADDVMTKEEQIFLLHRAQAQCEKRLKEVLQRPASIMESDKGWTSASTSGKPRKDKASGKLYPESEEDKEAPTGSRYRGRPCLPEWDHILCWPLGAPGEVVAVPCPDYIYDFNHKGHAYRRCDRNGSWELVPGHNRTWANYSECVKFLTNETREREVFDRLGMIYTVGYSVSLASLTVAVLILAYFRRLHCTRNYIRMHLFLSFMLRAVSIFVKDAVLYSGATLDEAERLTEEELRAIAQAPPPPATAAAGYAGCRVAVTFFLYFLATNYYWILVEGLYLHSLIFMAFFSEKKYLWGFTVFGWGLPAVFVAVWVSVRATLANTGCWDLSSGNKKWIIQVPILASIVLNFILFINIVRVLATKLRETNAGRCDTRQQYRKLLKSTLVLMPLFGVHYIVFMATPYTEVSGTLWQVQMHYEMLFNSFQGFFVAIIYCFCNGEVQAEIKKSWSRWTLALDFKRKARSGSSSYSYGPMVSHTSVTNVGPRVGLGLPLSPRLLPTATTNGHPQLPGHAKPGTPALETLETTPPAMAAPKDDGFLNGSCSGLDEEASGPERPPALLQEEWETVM
Test: Inverse agonism on basal cAMP signaling in GHR-10 cells
Type: cell-based
Conditions: GHR-10 cells, from AUC, representative experiment; for Reduction of basal cAMP, % vehicle, After ligand washout: 26 minutes after washout of unbound ligand; for Reduction of basal cAMP, % vehicle, Ligand @ −6M: peptide 1×10^−6 M for 24 minutes
Method: cAMP signaling was assessed in the HEK293-derived or SaOS2-derived cell lines stably expressing the luciferase-based GloSensor™ cAMP reporter (Hattersley et al., Paper presented at: Novel Signaling Mechanisms and Bone Cell Biology 2014; Binkowski et al., Methods in molecular biology. 756:263-271). HEK-293 cells were further transfected to stably express the hPTHR1, hPTHR1-H223R, or hPTHR1-T410P. The cells were seeded into 96-well white plates and were assayed 24 to 48 hours post-confluency. Assays were performed at room temperature in CO2-independent culture media (Life Technologies, Corp., Carlsbad, Calif.) containing 0.1% BSA (CIDB). The cells were pre-loaded with luciferin (0.5 mM in CIDB) for 15 minutes, then PTH peptides were added at varying concentrations. cAMP-dependent luminescence was measured at two-minute intervals using a PerkinElmer Envision plate reader. The time at which maximum luminescence (cps) observed with agonist alone, typically at 10-20 minutes after agonist addition, was used to obtain data from wells containing antagonist with or without agonist, to thus generate antagonist ligand dose-response curves. The resulting cps values were then plotted against ligand concentration using GraphPad Prism 7.0 software and a four-parameter logistics curve fitting equation, which yielded parameters of inhibitory potency (pIC50).
These experiments were performed in HEK-293 cells stably transfected to express the GloSensor™ cAMP reporter along with a constitutively active mutant human PTHR1. The HEK-293 cells stably expressing GloSensor™ cAMP reporter along with a constitutively active mutant human PTHR1-H223R are GHR-10 cells. The HEK-293 cells stably expressing GloSensor™ cAMP reporter along with a constitutively active mutant human PTHR1-T410P are GTP-4 cells. The HEK-293 cells stably expressing GloSensor™ cAMP reporter along with a WT-PTHR1 are GP-2.3 cells. GP-2.3 cells were used as control. […] Effects on basal cAMP signaling over time were assessed during periods of direct ligand addition (FIGS. 15A-15F). The measurements were performed by recording GloSensor™ luminescence as counts per second (cps) using a PerkinElmer Envision plate reader. The data are illustrated in FIGS. 15A-15F. Data are from triplicate wells (means±SEM) of a single experiment representative of two others.
Persistence of the antagonist/inverse agonist effects (prolonged action) as follows. Effects of eight peptides on basal and PTH(1-34)-stimulated cAMP signaling by PTHR-H223R were assessed in GHR-10 cells (HEK-293-derived cells stably expressing glosensor cAMP reporter and PTHR1-H223R). Time courses of changes in cAMP levels were recorded in three consecutive phases:
1) after initial addition of a candidate antagonist/inverse agonist (1×10^−6 M-1×10^−9 M) to cells pre-loaded for […] with luciferin (left column);
2) after removal of unbound inverse agonist by extensive wash-out with buffer and replenishment with fresh luciferin-containing buffer (middle column); and
Control wells were treated with vehicle. GloSensor™ luminescence, as counts per second (cps), was recorded using a PerkinElmer Envision plate reader. Data are from duplicate wells (means±SEM) of a single experiment representative of two others. The results are illustrated in Table 7 and in FIGS. 16A-16C, 17A-17C, 18A-18C, 19A-19C, 20A-20C, 21A-21C, 22A-22C, and 23A-23C.
GHR10 cells were treated with vehicle or vehicle containing the indicated peptide for 24 minutes and cAMP-dependent luminescence was recorded at two-minute intervals. The cells were then washed to remove unbound ligand and media containing fresh luciferin was added, and cAMP luminescence was recorded for another 26 minutes. Percentage reduction was calculated from the area-under-the-curve (AUC) values derived from the time course plots using the equation: […]

| Reduction of basal cAMP, % vehicle, After ligand washout | Reduction of basal cAMP, % vehicle, Ligand @ −6M | SMILES |
| --- | --- | --- |
| 62 % vehicle | 63 % vehicle | CCCC[C@H](NC(=O)[C@H](CC(C)C)NC(=O)[C@H](CCC(N)=O)NC(=O)[C@@H](N)[C@@H](C)CC)C(=O)N[C@@H](Cc1c[nH]cn1)C(=O)N[C@@H](CCC(N)=O)C(=O)N[C@@H](CC(C)C)C(=O)N[C@H](Cc1c[nH]c2ccccc12)C(=O)N[C@@H](CCCCN)C(=O)N[C@@H](Cc1c[nH]c2ccccc12)C(=O)N[C@H](C(=O)N[C@@H](CCC(N)=O)C(=O)N[C@@H](CC(=O)O)C(=O)N[C@@H](C)C(=O)N[C@@H](CCCNC(=N)N)C(=O)N[C@@H](CCCNC(=N)N)C(=O)N[C@@H](CCCNC(=N)N)C(=O)N[C@@H](C)C(=O)N[C@@H](Cc1c[nH]c2ccccc12)C(=O)N[C@@H](CC(C)C)C(=O)N[C@@H](Cc1c[nH]cn1)C(=O)N[C@@H](CCCCN)C(=O)N[C@@H](CC(C)C)C(=O)N[C@H](C(=O)N[C@@H](C)C(=O)N[C@@H](CCC(=O)O)C(=O)N[C@H](C(=O)N[C@@H](Cc1c[nH]cn1)C(=O)N[C@H](C(=O)N[C@@H](C)C(=O)N[C@@H](CCC(=O)O)C(=O)N[C@H](C(N)=O)[C@@H](C)CC)[C@@H](C)O)[C@@H](C)CC)[C@@H](C)CC)[C@@H](C)CC [compound 1999, Nle8, L11, dW12, W23-LA-PTH(5-36)-1999] (H-IQL[Nle]HQL[dW]KWIQDARRRAWLHKLIAEIHTAEI-NH2; N-terminus assumed) |
| 65 % vehicle | 66 % vehicle | CC[C@H](C)[C@H](NC(=O)[C@H](CCC(=O)O)NC(=O)[C@H](C)NC(=O)[C@@H](NC(=O)[C@H](Cc1c[nH]cn1)NC(=O)[C@@H](NC(=O)[C@H](CCC(=O)O)NC(=O)[C@H](C)NC(=O)[C@@H](NC(=O)[C@H](CC(C)C)NC(=O)[C@H](CCCCN)NC(=O)[C@H](Cc1c[nH]cn1)NC(=O)[C@H](CC(C)C)NC(=O)[C@H](Cc1c[nH]c2ccccc12)NC(=O)[C@H](C)NC(=O)[C@H](CCCNC(=N)N)NC(=O)[C@H](CCCNC(=N)N)NC(=O)[C@H](CCCNC(=N)N)NC(=O)[C@H](C)NC(=O)[C@H](CC(=O)O)NC(=O)[C@H](CCC(N)=O)NC(=O)[C@@H](NC(=O)[C@H](Cc1c[nH]c2ccccc12)NC(=O)[C@H](CCCCN)NC(=O)[C@@H](Cc1c[nH]c2ccccc12)NC(=O)[C@H](CC(C)C)NC(=O)[C@H](CCC(N)=O)NC(=O)[C@H](Cc1c[nH]cn1)NC(=O)[C@H](CCSC)NC(=O)[C@@H](N)CC(C)C)[C@@H](C)CC)[C@@H](C)CC)[C@@H](C)CC)[C@@H](C)O)C(N)=O [compound 2001, L11, dW12, W23-LA-PTH(7-36)-2001] (H-LMHQL[dW]KWIQDARRRAWLHKLIAEIHTAEI-NH2; N-terminus assumed) |
| 64 % vehicle | 66 % vehicle | CC[C@H](C)[C@H](N)C(=O)N[C@@H](CCC(N)=O)C(=O)N[C@@H](CC(C)C)C(=O)N[C@@H](CCSC)C(=O)N[C@@H](Cc1c[nH]cn1)C(=O)N[C@@H](CCC(N)=O)C(=O)N[C@@H](CC(C)C)C(=O)N[C@H](Cc1c[nH]c2ccccc12)C(=O)N[C@@H](CCCCN)C(=O)N[C@@H](Cc1c[nH]c2ccccc12)C(=O)N[C@H](C(=O)N[C@@H](CCC(N)=O)C(=O)N[C@@H](CC(=O)O)C(=O)N[C@@H](C)C(=O)N[C@@H](CCCNC(=N)N)C(=O)N[C@@H](CCCNC(=N)N)C(=O)N[C@@H](CCCNC(=N)N)C(=O)N[C@@H](C)C(=O)N[C@@H](Cc1c[nH]c2ccccc12)C(=O)N[C@@H](CC(C)C)C(=O)N[C@@H](Cc1c[nH]cn1)C(=O)N[C@@H](CCCCN)C(=O)N[C@@H](CC(C)C)C(=O)N[C@H](C(=O)N[C@@H](C)C(=O)N[C@@H](CCC(=O)O)C(=O)N[C@H](C(=O)N[C@@H](Cc1c[nH]cn1)C(=O)N[C@H](C(=O)N[C@@H](C)C(=O)N[C@@H](CCC(=O)O)C(=O)N[C@H](C(N)=O)[C@@H](C)CC)[C@@H](C)O)[C@@H](C)CC)[C@@H](C)CC)[C@@H](C)CC [compound 2003, L11, dW12, W23-LA-PTH(5-36)-2003] (H-IQLMHQL[dW]KWIQDARRRAWLHKLIAEIHTAEI-NH2; N-terminus assumed) |
